What all share (assay type): in vivo
For experiment [1], the system named is corn (Zea mays). Put plainly: General postemergence herbicidal activity, corn. To be noted: post-emergence, 336 h, postemergence, after 14 d, 0 = no injury, 100 = complete kill, read-out: ZEAMX % Visual Injury; for plant injury at 280 g/ha: 280 g ai/ha; for plant injury at 140 g/ha: 140 g ai/ha; for plant injury at 35 g/ha: 35 g ai/ha; for plant injury at 70 g/ha: 70 g ai/ha. The procedure: (§1) Seeds or nutlets of the desired test plant species were planted in Sun Gro MetroMix® 360 planting mixture, which typically has a pH of 6.0 to 6.8 and an organic matter content of about 30 percent, in plastic pots with a surface area of 64 square centimeters (cm^2). When required to ensure good germination and healthy plants, a fungicide treatment and/or other chemical or physical treatment was applied. The plants were grown for 7-21 days (d) in a greenhouse with an approximate 15-hour (h) photoperiod which was maintained at about 23-29° C. during the day and 22-28° C. during the night. Nutrients and water were added on a regular basis and supplemental lighting was provided with overhead metal halide 1000-Watt lamps as necessary. The plants were employed for testing when they reached the first or second true leaf stage.
(§2) A weighed amount, determined by the highest rate to be tested, of each test compound was dissolved in 4 mL of a 97:3 volume per volume (v/v) mixture of acetone and dimethyl sulfoxide (DMSO) to obtain concentrated stock solutions. […] The concentrated stock solutions obtained were diluted with 20 mL of an aqueous mixture containing acetone, water, isopropyl alcohol, DMSO, Atplus 411F crop oil concentrate, and Triton X-155 surfactant in a 48.5:39:10:1.5:1.0:0.02 v/v ratio to obtain spray solutions containing the highest application rates. Additional application rates were obtained by serial dilution of 12 mL of the high rate solution into a solution containing 2 mL of 97:3 v/v mixture of acetone and DMSO and 10 mL of an aqueous mixture containing acetone, water, isopropyl alcohol, DMSO, Atplus 411F crop oil concentrate, and Triton X-155 surfactant in a 48.5:39:10:1.5:1.0:0.02 v/v ratio to obtain ½×, ¼×, ⅛× and 1/16× rates of the high rate. Compound requirements are based upon a 12 mL application volume at a rate of 187 liters per hectare (L/ha). Formulated compounds were applied to the plant material with an overhead Mandel track sprayer equipped with 8002E nozzles calibrated to deliver 187 L/ha over an application area of 0.503 square meters (m^2) at a spray height of 18 inches (43 cm) above the average plant canopy height. Control plants were sprayed in the same manner with the solvent blank.
(§3) The treated plants and control plants were placed in a greenhouse as described above and watered by sub-irrigation to prevent wash-off of the test compounds. After 14 d, the condition of the test plants as compared with that of the untreated plants was determined visually and scored on a scale of 0 to 100 percent where 0 corresponds to no injury and 100 corresponds to complete kill.

Experiment [2] deals with velvetleaf (Abutilon theophrasti). Kind of experiment: General postemergence herbicidal activity, velvetleaf. To be noted: post-emergence, 336 h, postemergence, after 14 d, 0 = no injury, 100 = complete kill, read-out: ABUTH % Visual Injury; for pest or weed control at 280 g/ha: 280 g ai/ha; for pest or weed control at 140 g/ha: 140 g ai/ha; for pest or weed control at 35 g/ha: 35 g ai/ha; for pest or weed control at 70 g/ha: 70 g ai/ha. The procedure: as §1, §2, §3

For experiment [3], the system named is lambsquarters (Chenopodium album). Put plainly: General postemergence herbicidal activity, lambsquarters. To be noted: post-emergence, 336 h, postemergence, after 14 d, 0 = no injury, 100 = complete kill, read-out: CHEAL % Visual Injury; for pest or weed control at 280 g/ha: 280 g ai/ha; for pest or weed control at 140 g/ha: 140 g ai/ha; for pest or weed control at 35 g/ha: 35 g ai/ha; for pest or weed control at 70 g/ha: 70 g ai/ha. The procedure:
as §1, §2, §3

For experiment [4], the system named is wild buckwheat (Polygonum convululus). Put plainly: General postemergence herbicidal activity, wild buckwheat. To be noted: post-emergence, 336 h, postemergence, after 14 d, 0 = no injury, 100 = complete kill, read-out: POLCO % Visual Injury; for pest or weed control at 280 g/ha: 280 g ai/ha; for pest or weed control at 140 g/ha: 140 g ai/ha; for pest or weed control at 35 g/ha: 35 g ai/ha; for pest or weed control at 70 g/ha: 70 g ai/ha. Here is the method:
as §1, §2, §3

The record followed here is US20130324412A1, “N-ALKOXYAMIDES OF 6-(SUBSTITUTED PHENYL)-4-AMINOPICOLINATES AND 2-(SUBSTITUTED PHENYL)-6-AMINO-4-PYRIMIDINECARBOXYLATES AND THEIR USE AS SELECTIVE HERBICIDES FOR CROPS” (DOW AGROSCIENCES LLC, priority 2009, published 2013).

With `Nc1cc(Cl)nc(C(=O)NOCc2ccc(F)cc2)c1Cl` [Compound 34, 4-Amino-3,6-dichloro-N-(4-fluorobenzyloxy)picolinamide], in experiment [1], the plant injury at 280 g/ha was determined as 20%. The pest or weed control at 280 g/ha in experiment [2] was determined as 65%; in experiment [3], 100%; in experiment [4] it was 100%.

Regarding `C=CCONC(=O)c1nc(-c2ccc(Cl)c(OC)c2F)nc(N)c1OC` [Compound 35, N-(2-Propenyloxy)-6-amino-2-(4-chloro-2-fluoro-3-methoxyphenyl)-5-methoxypyrimidine-4-carboxamide], the plant injury at 140 g/ha in experiment [1] worked out at 20%. Also, the pest or weed control at 140 g/ha amounted to 100% in experiment [2], 100% in experiment [3] and 90% in experiment [4].

Consider `C=C(F)CONC(=O)c1nc(-c2ccc(Cl)c(OC)c2F)cc(N)c1Cl` [Compound 37, 4-Amino-3-chloro-6-(4-chloro-2-fluoro-3-methoxyphenyl)-N-(2-fluoro-2-propenyl-oxy)picolinamide], for which, in experiment [1] (17.5 g ai/ha), the plant injury at 17.5 g/ha came out at 25%. The pest or weed control at 17.5 g/ha in experiment [2] (17.5 g ai/ha), in experiment [3] (17.5 g ai/ha) and in experiment [4] (17.5 g ai/ha) was 100% in each case.

As for `C=CCCONC(=O)c1nc(-c2ccc(Cl)c(OC)c2F)cc(N)c1Cl` [Compound 38, 4-Amino-N-(3-butenyloxy)-3-chloro-6-(4-chloro-2-fluoro-3-methoxyphenyl)picolinamide], the plant injury at 35 g/ha in experiment [1] turned out to be 35%. Further, the pest or weed control at 35 g/ha in experiment [2], in experiment [3] and in experiment [4] was 100% throughout.

`COc1c(Cl)ccc(-c2cc(N)c(Cl)c(C(=O)N3CCCO3)n2)c1F` [Compound 40, (4-Amino-3-chloro-6-(4-chloro-2-fluoro-3-methoxyphenyl)pyridin-2-yl)(isoxazolidin-2-yl)methanone]: the plant injury at 140 g/ha in experiment [1] amounted to 20%. In addition, the figures for the pest or weed control at 140 g/ha in experiment [2], in experiment [3] and in experiment [4] were 95%, 100% and 100%, respectively.

Regarding `COc1c(Cl)ccc(-c2cc(N)c(Cl)c(C(=O)NOCc3ccco3)n2)c1F` [Compound 42, 4-Amino-3-chloro-6-(4-chloro-2-fluoro-3-methoxyphenyl)-N-(furan-2-yl-methoxy)picolinamide], the plant injury at 70 g/ha in experiment [1] was 15%. In addition, the pest or weed control at 70 g/ha in experiment [2], in experiment [3] and in experiment [4] was 100% in each case.

Consider `COc1c(Cl)ccc(-c2cc(N)c(Cl)c(C(=O)NOCc3ccoc3)n2)c1F` [Compound 43, 4-Amino-3-chloro-6-(4-chloro-2-fluoro-3-methoxyphenyl)-N-(furan-3-yl-methoxy)picolinamide], for which, in experiment [1], the plant injury at 140 g/ha was 30%. Further, the pest or weed control at 140 g/ha in experiment [2] is 95%; in experiment [3] it was 100%; in experiment [4], 100%.

Consider `COc1c(Cl)ccc(-c2cc(N)c(Cl)c(C(=O)NOCC3=CCCCC3)n2)c1F` [Compound 44, 4-Amino-3-chloro-6-(4-chloro-2-fluoro-3-methoxyphenyl)-N-(cyclohexenyl-methoxy)picolinamide], for which the plant injury at 140 g/ha in experiment [1] is 5%. The pest or weed control at 140 g/ha in experiment [2] amounted to 98%; in experiment [3], 98%; in experiment [4], 100%.

For the compound `CC/C=C/CONC(=O)c1nc(-c2ccc(Cl)c(OC)c2F)cc(N)c1Cl` [Compound 45, (E)-4-Amino-3-chloro-6-(4-chloro-2-fluoro-3-methoxyphenyl)-N-(2-pentenyl-oxy)picolinamide], the plant injury at 140 g/ha in experiment [1] was 30%. In addition, the pest or weed control at 140 g/ha in experiment [2], in experiment [3] and in experiment [4] was 100% in each case.

With `CCCCONC(=O)c1nc(-c2ccc(Cl)c(OC)c2F)cc(N)c1Cl` [Compound 46, 4-Amino-N-butoxy-3-chloro-6-(4-chloro-2-fluoro-3-methoxyphenyl)picolinamide], the plant injury at 70 g/ha in experiment [1] was found to be 25%. In addition, the pest or weed control at 70 g/ha in experiment [2], in experiment [3] and in experiment [4] was 100% each time.

`COCCONC(=O)c1nc(-c2ccc(Cl)c(OC)c2F)cc(N)c1Cl` [Compound 49, 4-Amino-3-chloro-6-(4-chloro-2-fluoro-3-methoxyphenyl)-N-(2-methoxy-ethoxy)picolinamide]: the plant injury at 280 g/ha in experiment [1] came to 0%. In addition, the pest or weed control at 280 g/ha in experiment [2], in experiment [3] and in experiment [4] was 100% each time.

For `COc1c(Cl)ccc(-c2cc(N)c(Cl)c(C(=O)NOCCC#N)n2)c1F` [Compound 50, 4-Amino-3-chloro-6-(4-chloro-2-fluoro-3-methoxyphenyl)-N-(2-cyanoethoxy)picolinamide], the plant injury at 280 g/ha in experiment [1] worked out at 10%. Also, the pest or weed control at 280 g/ha in experiment [2] came to 100%; in experiment [3], 100%; in experiment [4], 90%.

With `COCCOCONC(=O)c1nc(-c2ccc(Cl)c(OC)c2F)cc(N)c1Cl` [Compound 51, 4-Amino-3-chloro-6-(4-chloro-2-fluoro-3-methoxyphenyl)-N-((2-methoxyethoxy)-methoxy)picolinamide], the plant injury at 35 g/ha in experiment [1] was determined as 35%. Also, the pest or weed control at 35 g/ha in experiment [2], in experiment [3] and in experiment [4] was 100% throughout.

For the compound `COc1c(Cl)ccc(-c2cc(N)c(Cl)c(C(=O)N3CC=CCO3)n2)c1F` [Compound 52, (4-Amino-3-chloro-6-(4-chloro-2-fluoro-3-methoxyphenyl)pyridin-2-yl)(3,6-dihydro-2H-1,2-oxazin-2-yl)methanone], the plant injury at 35 g/ha in experiment [1] was determined as 20%. For the same compound, the pest or weed control at 35 g/ha in experiment [2] was determined as 100%; in experiment [3] it was 90%; in experiment [4] it was 100%.
